In the oligonucleotide strings, read from the 5' end, every base follows the letter of its sugar. An asterisk marks phosphorothioate; unmarked linkages are phosphodiester. Other units and linkages are bracketed, terminal groups are in braces. A string of capitals states the bases alone. d = 2'-deoxy (DNA); m = 2'-O-methyl; f = 2'-fluoro
Columns and labels:
Assay type in all cases: cell-based, human
AR FL(1) = experiment: AR protein knock-down by Western blot after siRNA transfection in 22RV1 cells: AR FL(1); conditions: 5 nM siRNA, 50 h post transfection, compared to controls
Procedure: (§1) In some instances, a set of AR siRNAs were identified that were predicted to be specific in human and non-human primates (NHP) and cross-reactive with NHPs but not rodent AR mRNA. To identify AR siRNAs that regulate both full length AR and clinically relevant AR splice variants, the search for AR siRNAs was focused primarily, but not exclusively, on exons 1, 2 and 3 of the AR gene, which are common to most AR isoforms. The resulting set of 50 AR siRNAs (Tables 1-3) was assessed in two prostate cancer lines that express high levels of either clinically relevant AR splice variants (22RV1, ATCC) or a full length AR T877A LBD mutant (LNCaP, ATCC). The response of LNCaP tumors in xenograft models to AR antagonists is known to correlate well with clinical responses.
(§2) To monitor their ability to downregulate various AR isoforms, each siRNA was formulated at a single final concentration of 5 nM with a commercially-available transfection reagent (Lipofectamine RNAiMAX, Life Technologies) according to the manufacturer's “forward transfection” instructions. At 50 h (22RV1) and 72 h (LNCaP) post transfection, cells were harvested, and lysed in RIPA buffer (Pierce) supplemented with HALT protease inhibitors (Pierce) using standard procedures. The protein concentration was determined using a BCA protein concentration kit (Pierce). To monitor AR levels in these lysates, proteins (30 ug/lane) were separated by PAGE on BOLT 4-12% Bis-Tris PA gels (Life Technologies), transferred to nitrocellulose using an iBlot dry blot system (Thermo Fisher), and probed with specific antibodies against a region of the N-terminal domain of human AR that is common in known clinically relevant splice variants (N20, Santa Cruz Biotech). A second antibody against α-Tubulin was used as control (P16, Santa Cruz Biotech). Levels of these proteins in the respective cell lysates were quantified on an Odyssey imaging system (LICOR) using appropriate secondary antibodies linked to IRDyes (800CW, 680RD).

AR-SV(2) = experiment: AR protein knock-down by Western blot after siRNA transfection in 22RV1 cells: AR-SV(2); conditions: 5 nM siRNA, 50 h post transfection, compared to controls
Procedure: as §1, §2

AR-SV(3) = experiment: AR protein knock-down by Western blot after siRNA transfection in 22RV1 cells: AR-SV(3); conditions: 5 nM siRNA, 50 h post transfection, compared to controls
Procedure: as §1, §2

[1] = test system: AR FL (full length AR T877A LBD mutant); experiment: AR protein knock-down by Western blot after siRNA transfection in LNCaP cells: AR FL; conditions: 5 nM siRNA, 72 h post transfection, compared to controls
Procedure: as §1, §2

Row | Substance | % KD AR Protein 22RV1 AR FL(1) (AR FL(1)) [%] | % KD AR Protein 22RV1 AR-SV(2) (AR-SV(2)) [%] | % KD AR Protein 22RV1 AR-SV(3) (AR-SV(3)) [%] | % KD AR Protein LNCaP AR FL [1] [%]
1 | XD-01835: AR siRNA with chemical modification, Id # 2924; sense X05365 (SEQ ID NO: 195), antisense X05366 (SEQ ID NO: 196) (sense mUmAfUmUfGmAfUmAfAmAfUmUfCmCfGmAfAmGfGdT*dT; antisense fCfCmUfUmCfGmGfAmAfUmUfUmAfUmCfAmAfUmAdT*dT) | 89 | 85 | 83 | 92
2 | XD-01851: AR siRNA with chemical modification, Id # 3217; sense X05397 (SEQ ID NO: 227), antisense X05398 (SEQ ID NO: 228) (sense mUmGfCmUfCmUfCmUfAmGfCmCfUmCfAmAfUmGfAdT*dT; antisense fUfCmAfUmUfGmAfGmGfCmUfAmGfAmGfAmGfCmAdT*dT) | 50 | 2 | 8 | 84
3 | XD-01846: AR siRNA with chemical modification, Id # 2975; sense X05387 (SEQ ID NO: 217), antisense X05388 (SEQ ID NO: 218) (sense mUmUfAmUfGmAfAmGfCmAfGmGfGmAfUmGfAmCfUdT*dT; antisense fAfGmUfCmAfUmCfCmCfUmGfCmUfUmCfAmUfAmAdT*dT) | 87 | 94 | 76 | 94
4 | XD-01849: AR siRNA with chemical modification, Id # 3105; sense X05393 (SEQ ID NO: 223), antisense X05394 (SEQ ID NO: 224) (sense mCmAfCmAfUmUfGmAfAmGfGmCfUmAfUmGfAmAfUdT*dT; antisense fAfUmUfCmAfUmAfGmCfCmUfUmCfAmAfUmGfUmGdT*dT) | 86 | 7 | −40 | 92
5 | XD-01836: AR siRNA with chemical modification, Id # 2925; sense X05367 (SEQ ID NO: 197), antisense X05368 (SEQ ID NO: 198) (sense mAmUfUmGfAmUfAmAfAmUfUmCfCmGfAmAfGmGfAdT*dT; antisense fUfCmCfUmUfCmGfGmAfAmUfUmUfAmUfCmAfAmUdT*dT) | 87 | 83 | 73 | 91
6 | XD-01842: AR siRNA with chemical modification, Id # 2940; sense X05379 (SEQ ID NO: 209), antisense X05380 (SEQ ID NO: 210) (sense mAmGfGmAfAmAfAmAfUmUfGmUfCmCfAmUfCmUfUdT*dT; antisense fAfAmGfAmUfGmGfAmCfAmAfUmUfUmUfUmCfCmUdT*dT) | 89 | 94 | 84 | 101
7 | XD-01847: AR siRNA with chemical modification, Id # 3020; sense X05389 (SEQ ID NO: 219), antisense X05390 (SEQ ID NO: 220) (sense mUmGfGmUfAmAfUmCfUmGfAmAfAmCfUmAfCmAfGdT*dT; antisense fCfUmGfUmAfGmUfUmUfCmAfGmAfUmUfAmCfCmAdT*dT) | 28 | −10 | −68 | 69
8 | XD-01837: AR siRNA with chemical modification, Id # 2927; sense X05369 (SEQ ID NO: 199), antisense X05370 (SEQ ID NO: 200) (sense mUmGfAmUfAmAfAmUfUmCfCmGfAmAfGmGfAmAfAdT*dT; antisense fUfUmUfCmCfUmUfCmGfGmAfAmUfUmUfAmUfCmAdT*dT) | 87 | 94 | 86 | 91
9 | XD-01854: AR siRNA with chemical modification, Id # 3416; sense X05403 (SEQ ID NO: 233), antisense X05404 (SEQ ID NO: 234) (sense mUmGfAmUfCmUfGmGfUmUfUmUfCmAfAmUfGmAfGdT*dT; antisense fCfUmCfAmUfUmGfAmAfAmAfCmCfAmGfAmUfCmAdT*dT) | 95 | 38 | 46 | 93

From patent US20220033434A1, “ANDROGEN RECEPTOR NUCLEIC ACIDS AND USES THEREOF” (Avidity Biosciences, Inc., priority 2016, published 2022)
